In ChEMBL document CHEMBL1201862, “PubChem BioAssay data set” (2004):
Active and inactive are the calls of the source.

Experiments:
[1] = Dd2 malaria parasite growth inhibition potency – SYBR Green, dry powder samples, dose response (AID 1159566); assay type: functional, cell-based;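 further: potency for growth inhibition with lower SYBR green DNA signal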
[2] = growth inhibition of yeast DHODH-expressing 3D7 parasites – SYBR Green, dry powder samples, dose response (AID 1159570); assay type: functional, cell-based;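 further: parasite growth measured after 72 hours of compound exposure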
[3] = P. falciparum Dd2 growth inhibitors, dose response, SYBR Green, cherry-picked samples (AID 1159567); assay type: functional, cell-based
[4] = growth inhibition of PfATP4-mutant resistant parasites – NITD609-resistant line, SYBR Green, dry powder, dose response (AID 1159571); assay type: functional, cell-based;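 further: parasites synchronized at ring stage by sorbitol before testing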
[5] = OVCAR8 cell viability loss – plate reader, dry powder samples, PAX8 project, dose response (AID 743197); assay type: functional, cell-based; conditions: OVCAR-8
[6] = OVCAR-3 cell viability loss – plate reader, dry powder samples, PAX8 inhibitor project, dose response (AID 743044); assay type: functional, cell-based
[7] = target: Paired box protein Pax-8 (Homo sapiens, UniProt Q06710); test: PAX8 transcriptional activity inhibition in RMG-I – RMG-I cells, luciferase, cherry-pick, dose response (AID 687027); assay type: functional, cell-based;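 further: luciferase reporter driven by Pax8 target thyroperoxidase promoter measured by SteadyGlo luminescence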
[8] = target: T1, Short transient receptor potential channel 4 (Mus musculus, UniProt Q9QUQ5); test: calcium entry via TRPC4 opening agents – cell-based, HEK293 TRPC4/mu-opioid, Fluo-4 calcium, dose response (AID 434937); assay type: functional
T1 sequence (Q9QUQ5 whole entry): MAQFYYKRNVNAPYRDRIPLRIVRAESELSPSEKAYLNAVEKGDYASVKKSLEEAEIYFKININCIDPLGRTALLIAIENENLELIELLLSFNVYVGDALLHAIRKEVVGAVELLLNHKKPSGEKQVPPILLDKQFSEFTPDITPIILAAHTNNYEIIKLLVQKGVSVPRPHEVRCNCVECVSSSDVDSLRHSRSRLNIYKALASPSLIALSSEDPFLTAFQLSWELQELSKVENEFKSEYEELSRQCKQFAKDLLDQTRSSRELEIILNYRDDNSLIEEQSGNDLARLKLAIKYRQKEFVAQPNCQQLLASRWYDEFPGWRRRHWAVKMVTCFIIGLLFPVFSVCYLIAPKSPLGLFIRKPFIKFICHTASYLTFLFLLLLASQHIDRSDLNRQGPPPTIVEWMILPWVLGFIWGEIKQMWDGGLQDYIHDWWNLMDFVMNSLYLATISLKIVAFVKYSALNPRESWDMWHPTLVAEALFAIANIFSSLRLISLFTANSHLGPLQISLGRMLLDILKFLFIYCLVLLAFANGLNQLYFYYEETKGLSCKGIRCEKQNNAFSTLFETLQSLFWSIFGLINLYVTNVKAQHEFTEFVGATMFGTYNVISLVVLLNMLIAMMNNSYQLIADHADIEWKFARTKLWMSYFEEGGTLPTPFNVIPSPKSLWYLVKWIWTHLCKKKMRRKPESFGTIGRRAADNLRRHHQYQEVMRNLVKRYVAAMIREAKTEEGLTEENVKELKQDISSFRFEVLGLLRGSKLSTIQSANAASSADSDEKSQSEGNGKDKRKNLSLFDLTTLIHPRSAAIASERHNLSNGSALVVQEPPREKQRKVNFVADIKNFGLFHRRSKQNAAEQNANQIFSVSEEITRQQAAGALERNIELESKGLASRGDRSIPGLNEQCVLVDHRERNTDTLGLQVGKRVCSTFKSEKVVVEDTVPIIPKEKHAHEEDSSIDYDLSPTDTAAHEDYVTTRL

[9] = NIH3T3 cell viability loss – ATP luminescence, mouse fibroblasts, counter-screen, dose response (AID 2010); assay type: functional, cell-based;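 further: cells exposed to compound for about 90 hours before reading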
[10] = Trypanosoma cruzi growth suppression in host cells – NIH3T3 host cells, beta-gal luminescence, confirmation (AID 2044); assay type: functional, cell-based;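 further: intracellular parasites grown in NIH/3T3 mouse fibroblasts as host cells; luminescent beta-galactosidase reporter signal from transgenic T. cruzi replicating inside host cells; inhibitors lower the luminescence signal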
[11] = system: H9c2; test: cells; assay type: functional, cell-based; conditions: Rattus norvegicus, H9c2, Myocardium;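 further: confirmatory concentration-response retest of ultra-high-throughput screening hits for modulation of myocardial damage; cell death induced by hydrogen peroxide oxidative stress; compound pretreatment for 60 min then peroxide exposure for 2 h; potency is for protecting the cells against peroxide damage rather than for killing them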
[12] = target: T2, DNA repair protein RAD52 homolog (Homo sapiens, UniProt P43351); assay type: functional, biochemical
T2 sequence (P43351 whole entry): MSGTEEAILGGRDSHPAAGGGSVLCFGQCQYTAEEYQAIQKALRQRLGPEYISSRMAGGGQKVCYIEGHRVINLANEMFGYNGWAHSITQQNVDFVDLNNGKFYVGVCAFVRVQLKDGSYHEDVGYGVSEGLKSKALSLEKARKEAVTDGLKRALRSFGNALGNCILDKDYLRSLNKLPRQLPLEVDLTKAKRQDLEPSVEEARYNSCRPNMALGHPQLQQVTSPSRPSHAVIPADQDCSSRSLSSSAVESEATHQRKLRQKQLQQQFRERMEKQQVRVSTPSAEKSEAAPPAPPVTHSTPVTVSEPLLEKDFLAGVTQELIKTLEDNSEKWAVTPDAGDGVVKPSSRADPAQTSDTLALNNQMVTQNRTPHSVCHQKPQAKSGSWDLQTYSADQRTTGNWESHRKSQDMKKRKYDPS

[13] = alpha-synuclein stem-loop luciferase translation blockers – H4 neuroglioma cells, luminescence, confirmation (AID 1988); assay type: functional, cell-based
[14] = luciferase reporter signal suppression in cells – H4 neuroglioma cells, luminescence, dose response (AID 1990); assay type: functional, cell-based
[15] = HEK-293T cell viability reduction – luminescence, B-cell screen hits, cytotoxicity control for BCR NF-kB inhibitor project, dose response (AID 489021); assay type: functional, cell-based;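 further: HEK-293T cells carrying an NF-kB luciferase reporter; cells exposed to compound for about 14 hours before viability readout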
[16] = cells; assay type: functional
[17] = THP-1 cell cytotoxicity, dose response, cytotoxicity control for non-replicating M. tuberculosis project (AID 489025); assay type: functional
[18] = Vero E6 cell cytotoxicity, dose response, cytotoxicity control for non-replicating M. tuberculosis project, secondary assay (AID 492998); assay type: functional, VeroE6; conditions: Vero C1008
[19] = target: Luciferin 4-monooxygenase (Photinus pyralis, UniProt P08659); test: inhibition of purified Photinus pyralis luciferase – biochemical, luminescence, dose response (AID 1891)
[20] = target: T3, Calpain-2 catalytic subunit (Sus scrofa, UniProt P43367); test: m-calpain protease blockers, concentration series – biochemical, fluorogenic peptide substrate, dose response (AID 1420); assay type: functional
T3 sequence (P43367 whole entry): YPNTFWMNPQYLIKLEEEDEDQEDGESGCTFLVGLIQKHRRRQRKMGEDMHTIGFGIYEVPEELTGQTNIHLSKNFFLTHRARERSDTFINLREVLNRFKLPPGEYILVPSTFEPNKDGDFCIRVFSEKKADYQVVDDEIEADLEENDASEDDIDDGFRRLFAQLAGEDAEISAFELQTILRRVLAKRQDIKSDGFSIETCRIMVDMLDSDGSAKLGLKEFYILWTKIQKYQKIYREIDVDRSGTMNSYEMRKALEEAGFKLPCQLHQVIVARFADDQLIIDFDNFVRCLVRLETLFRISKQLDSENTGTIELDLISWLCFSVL

[21] = Luminescence Cell-Based Dose Response HTS to Identify Inhibitors of 5'UTR Stem-Loop Driven Prion Protein mRNA Translation in H4 Neuroglioblastoma Cells. [Related pubchem assays: 1827 (Project Summary), 1813 (Primary HTS)]; assay type: functional
[22] = Luminescence Cell-Based Dose Confirmation HTS to Identify Inhibitors of Platelet Dense Granule Release. [Related pubchem assays: 1663 (Primary HTS), 1678 (Summary of Project)]; assay type: functional

Luciferin 4-monooxygenase, sequence (P08659 whole entry): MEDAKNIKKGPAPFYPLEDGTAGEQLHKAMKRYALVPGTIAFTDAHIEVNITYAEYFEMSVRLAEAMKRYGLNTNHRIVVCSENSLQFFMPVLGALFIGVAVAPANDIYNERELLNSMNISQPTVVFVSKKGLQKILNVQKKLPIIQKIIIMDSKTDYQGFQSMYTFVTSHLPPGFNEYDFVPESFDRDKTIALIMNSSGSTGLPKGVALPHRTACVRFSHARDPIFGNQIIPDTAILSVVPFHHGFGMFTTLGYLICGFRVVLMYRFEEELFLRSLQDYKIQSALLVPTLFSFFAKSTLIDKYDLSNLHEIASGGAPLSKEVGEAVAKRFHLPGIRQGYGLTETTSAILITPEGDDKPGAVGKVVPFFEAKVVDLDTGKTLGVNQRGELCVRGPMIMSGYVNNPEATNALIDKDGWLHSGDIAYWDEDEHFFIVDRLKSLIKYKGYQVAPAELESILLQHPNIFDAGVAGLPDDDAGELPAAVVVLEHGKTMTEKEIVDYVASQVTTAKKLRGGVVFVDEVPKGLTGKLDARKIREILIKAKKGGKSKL
Paired box protein Pax-8, sequence (Q06710 whole entry): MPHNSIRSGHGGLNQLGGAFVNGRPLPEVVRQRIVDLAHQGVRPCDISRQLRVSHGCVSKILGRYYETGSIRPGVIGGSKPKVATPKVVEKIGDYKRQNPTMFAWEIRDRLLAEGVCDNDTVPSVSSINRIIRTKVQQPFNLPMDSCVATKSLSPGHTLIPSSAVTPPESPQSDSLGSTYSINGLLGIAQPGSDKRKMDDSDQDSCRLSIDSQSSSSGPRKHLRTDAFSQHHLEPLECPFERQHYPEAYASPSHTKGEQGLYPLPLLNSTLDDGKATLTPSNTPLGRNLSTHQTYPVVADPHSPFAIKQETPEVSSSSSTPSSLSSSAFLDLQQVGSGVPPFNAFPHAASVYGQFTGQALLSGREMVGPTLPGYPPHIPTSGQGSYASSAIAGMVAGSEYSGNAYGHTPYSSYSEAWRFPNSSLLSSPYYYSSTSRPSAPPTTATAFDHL

With `C[C@H]1CN([C@@H](C)CO)C(=O)c2c(c3ccccc3n2C)-c2ccccc2CO[C@@H]1CN(C)S(=O)(=O)c1ccc(F)cc1` the AC50 [1] was 0.755 µM (active), the AC50 [2] was 1.4 µM (active) and the AC50 [3] was 1.89 µM (active). The AC50 [4] was 1.15 µM (active).

In the case of `O=C(C1CCCCC1)N1[C@H](CO)[C@@H](c2ccccc2)C12CN(Cc1cccc(Cl)c1)C2`, the AC50 [1] is reported as 0.353 µM (active), the AC50 [2] is reported as 0.651 µM (active) and the AC50 [3] is reported as 1.43 µM (active). For the same molecule, the AC50 [4] was 0.606 µM (active).

With `C[C@H]1CCCCO[C@H](CN(C)S(=O)(=O)c2ccc(F)cc2)[C@@H](C)CN([C@@H](C)CO)C(=O)c2cc(NS(=O)(=O)c3ccc(Cl)cc3)ccc2O1` the AC50 [5] was 60.6 µM (active), the AC50 [6] was 49.2 µM (active) and the AC50 [7] was 5.92 µM (active).

With `Clc1cccc(OCCN2CCNCC2)c1` the EC50 [8] was 0.841 µM (active), the EC50 [9] was > 60 µM (not active) and the EC50 [10] was 0.744 µM (active).

In the case of `CCCn1c(=O)c(C(=O)Nc2ccccc2)c(O)c2ccccc21`, the IC50 [11] is reported as 9.48 µM (active).

In the case of `CC(=O)N(CCN(C)C)c1nc2cc3c(cc2s1)OCCO3`, the AC50 [12] is reported as 11.4 µM (active).

For `Cc1ccc(S(=O)(=O)N(C)C[C@H]2OCc3ccccc3-c3c(n(C)c4ccccc34)C(=O)N([C@@H](C)CO)C[C@@H]2C)cc1`, the AC50 [1] was 0.818 µM (active), the AC50 [2] was 1.21 µM (active) and the AC50 [3] was 1.53 µM (active). For the same molecule, the AC50 [4] was 0.807 µM (active).

In the case of `Cc1c(CCC(=O)N2CCC[C@H]2C(=O)O)c(=O)oc2cc3oc4c(c3cc12)CCCC4`, the EC50 [13] is reported as 10.2 µM (active), the EC50 [14] is reported as 8.13 µM (active) and the IC50 [15] is reported as > 80 µM (inactive).

With `Cc1cc(N2CCN(c3ccccc3)CC2)nc(-n2nc(C)cc2C)n1` the IC50 [16] was 0.94 µM (active), the CC50 [17] was > 40 µM (active) and the CC50 [18] was > 20 µM (active).

In the case of `O=C(CCCN1C(=O)/C(=C/c2ccccc2Cl)SC1=S)NNC(=O)c1ccc(Cl)cc1Cl`, the EC50 [19] is reported as > 112 µM (not active), the IC50 [20] is reported as > 50 µM (not active) and the EC50 [21] is reported as 7.86 µM (active). The EC50 [13] was 1.03 µM (active), the EC50 [14] was 0.675 µM (active) and the IC50 [15] was > 80 µM (inactive). The EC50 [22] was > 112 µM (not active).

For `CC1(C)CC2CC(C)(CN2C(=O)COC(=O)Cn2[nH]c(=O)c3ccccc3c2=O)C1` (stereo unspecified), the IC50 [11] was 12.1 µM (active).

In the case of `CCCCCc1c(O)nc(SCCN(C)C)nc1O`, the EC50 [8] is reported as 4.22 µM (active).

With `COc1cc(Nc2nc3ccccc3n3nnnc23)cc(OC)c1OC` the IC50 [11] was > 79 µM (inactive).
